Measured values: PubChem BioAssay AID1259407 (Chemical Carcinogenesis Research Information System (CCRIS), 2018)
Activity calls are given as the source filed them. The rule behind the calls is not given here.

Tested on: CCRIS mutagenicity, Ames/micronucleus/aberration tests
Experiment: CCRIS mutagenicity studies
[1] = Test System: AMES SALMONELLA TYPHIMURIUM, Strain/Indicator: TA1537, Metabolic Activation: NONE, Method: PREINCUBATION
[2] = Test System: AMES SALMONELLA TYPHIMURIUM, Strain/Indicator: TA98, Metabolic Activation: NONE, Method: STANDARD PLATE
[3] = Test System: AMES SALMONELLA TYPHIMURIUM, Strain/Indicator: TA100, Metabolic Activation: NONE, Method: STANDARD PLATE

With CC(=O)c1c(=O)cc(C)oc1=O the mutagenic call (End Point: IN VIVO MICRONUCLEUS, Test System: BONE MARROW POLYCHROMATIC ERYTHROCYTES, Species: MOUSE, Strain/Sex: DDY/MALE, Route: IP) was “active; positive”, the mutagenic call (Test System: AMES SALMONELLA TYPHIMURIUM, Strain/Indicator: TA97A, Metabolic Activation: NONE, Method: PREINCUBATION) was “inactive; negative” and the mutagenic call (Test System: AMES SALMONELLA TYPHIMURIUM, Strain/Indicator: TA97A, Metabolic Activation: RAT, LIVER, S-9, AROCLOR 1254, Method: PREINCUBATION) was “inactive; negative”. The mutagenic call (Test System: AMES SALMONELLA TYPHIMURIUM, Strain/Indicator: TA98, Metabolic Activation: HAMSTER, LIVER, S-9, AROCLOR 1254 (10%), Method: PREINCUBATION) was “inactive; negative”, the mutagenic call (Test System: AMES SALMONELLA TYPHIMURIUM, Strain/Indicator: TA98, Metabolic Activation: NONE, Method: PREINCUBATION) was “inactive; negative” and the mutagenic call (Test System: AMES SALMONELLA TYPHIMURIUM, Strain/Indicator: TA98, Metabolic Activation: RAT, LIVER, S-9, AROCLOR 1254 (10%), Method: PREINCUBATION) was “inactive; negative”. The mutagenic call (Test System: AMES SALMONELLA TYPHIMURIUM, Strain/Indicator: TA100, Metabolic Activation: HAMSTER, LIVER, S-9, AROCLOR 1254 (10%), Method: PREINCUBATION) was “inactive; negative”, the mutagenic call (Test System: AMES SALMONELLA TYPHIMURIUM, Strain/Indicator: TA100, Metabolic Activation: NONE, Method: PREINCUBATION) was “inactive; negative” and the mutagenic call (Test System: AMES SALMONELLA TYPHIMURIUM, Strain/Indicator: TA100, Metabolic Activation: RAT, LIVER, S-9, AROCLOR 1254 (10%), Method: PREINCUBATION) was “inactive; negative”. For the same molecule, the mutagenic call (Test System: AMES SALMONELLA TYPHIMURIUM, Strain/Indicator: TA102, Metabolic Activation: NONE, Method: PREINCUBATION) was “inactive; negative”, the mutagenic call (Test System: AMES SALMONELLA TYPHIMURIUM, Strain/Indicator: TA102, Metabolic Activation: RAT, LIVER, S-9, AROCLOR 1254, Method: PREINCUBATION) was “inactive; negative” and the mutagenic call (Test System: AMES SALMONELLA TYPHIMURIUM, Strain/Indicator: TA1535, Metabolic Activation: HAMSTER, LIVER, S-9, AROCLOR 1254 (10%), Method: PREINCUBATION) was “inactive; negative”. For the same molecule, the mutagenic call (Test System: AMES SALMONELLA TYPHIMURIUM, Strain/Indicator: TA1535, Metabolic Activation: NONE, Method: PREINCUBATION) was “inactive; negative”, the mutagenic call (Test System: AMES SALMONELLA TYPHIMURIUM, Strain/Indicator: TA1535, Metabolic Activation: RAT, LIVER, S-9, AROCLOR 1254 (10%), Method: PREINCUBATION) was “inactive; negative” and the mutagenic call (Test System: AMES SALMONELLA TYPHIMURIUM, Strain/Indicator: TA1537, Metabolic Activation: HAMSTER, LIVER, S-9, AROCLOR 1254 (10%), Method: PREINCUBATION) was “inactive; negative”. For the same molecule, the mutagenic call [1] was “inactive; negative” and the mutagenic call (Test System: AMES SALMONELLA TYPHIMURIUM, Strain/Indicator: TA1537, Metabolic Activation: RAT, LIVER, S-9, AROCLOR 1254 (10%), Method: PREINCUBATION) was “inactive; negative”.
O=C1c2ccccc2C(=O)N1CCCN1c2ccccc2Sc2ccc(Cl)cc21 was tested, and the mutagenic call (Test System: AMES SALMONELLA TYPHIMURIUM, Strain/Indicator: TA98, Metabolic Activation: NONE, Method: SPOT TEST) was “inactive; negative”.
For O=[N+]([O-])c1ccc2ccc3c([N+](=O)[O-])cccc3c2c1, the mutagenic call (Test System: AMES SALMONELLA TYPHIMURIUM, Strain/Indicator: TA98(1,8-DNP6), Metabolic Activation: NONE, Method: STANDARD PLATE) was “active; positive”, the mutagenic call (Test System: AMES SALMONELLA TYPHIMURIUM, Strain/Indicator: TA98(NR), Metabolic Activation: NONE, Method: STANDARD PLATE) was “active; positive” and the mutagenic call [2] was “active; positive”. The mutagenic call [3] was “active; positive”, the mutagenic call (Test System: AMES SALMONELLA TYPHIMURIUM, Strain/Indicator: YG1021, Metabolic Activation: NONE, Method: STANDARD PLATE) was “active; positive” and the mutagenic call (Test System: AMES SALMONELLA TYPHIMURIUM, Strain/Indicator: YG1024, Metabolic Activation: NONE, Method: STANDARD PLATE) was “active; positive”. For the same molecule, the mutagenic call (Test System: AMES SALMONELLA TYPHIMURIUM, Strain/Indicator: YG1026, Metabolic Activation: NONE, Method: STANDARD PLATE) was “active; positive” and the mutagenic call (Test System: AMES SALMONELLA TYPHIMURIUM, Strain/Indicator: YG1029, Metabolic Activation: NONE, Method: STANDARD PLATE) was “active; positive”.
COC(=O)CN(CC(=O)OC)C1C[C@H]1N(CC(=O)OC)CC(=O)OC (some centres not stated) was tested, and the mutagenic call (Test System: CHINESE HAMSTER V-79, Strain/Indicator: V-79/OUABAIN, Metabolic Activation: NONE, Method: STANDARD PLATE) was “active; positive”.
With O=c1c2ccccc2[nH]c2ccccc12 the mutagenic call (Test System: AMES SALMONELLA TYPHIMURIUM, Strain/Indicator: TA100, Metabolic Activation: GUINEA PIG, LIVER, S-9, 3-METHYLCHOLANTHRENE, Method: STANDARD PLATE) was “inactive; negative”.
COC1OC(=O)C(Cl)=C1C(Cl)Cl (configuration not stated) was tested, and the mutagenic call [3] was “active; positive”.
C[C@@H]1CC[C@@]2(OC1)O[C@H]1C[C@H]3[C@@H]4CC=C5C[C@@H](O[C@@H]6O[C@H](CO)[C@@H](O)[C@H](O[C@@H]7O[C@H](CO)[C@@H](O)[C@H](O)[C@H]7O)[C@H]6O[C@@H]6O[C@@H](C)[C@H](O)[C@@H](O)[C@H]6O)CC[C@]5(C)[C@H]4CC[C@]3(C)[C@H]1[C@@H]2C was tested, and the mutagenic call [2] was “inactive; negative”, the mutagenic call (Test System: AMES SALMONELLA TYPHIMURIUM, Strain/Indicator: TA98, Metabolic Activation: RAT, LIVER, S-9, PHENOBARBITAL, Method: STANDARD PLATE) was “inactive; negative” and the mutagenic call [3] was “inactive; negative”. For the same molecule, the mutagenic call (Test System: AMES SALMONELLA TYPHIMURIUM, Strain/Indicator: TA100, Metabolic Activation: RAT, LIVER, S-9, PHENOBARBITAL, Method: STANDARD PLATE) was “inactive; negative”.
In the case of CC(C)CCC[C@@H](C)[C@H]1CC[C@H]2[C@@H]3C=CC4(OO)C[C@@H](O)CC[C@]4(C)[C@H]3CC[C@]12C (some centres not stated), the mutagenic call [1] is reported as “active; positive”.
In the case of CC(C)(O)CCc1ccc(O)c2c(=O)c3c(O)c4c(cc3oc12)O[C@H]1OC=C[C@@H]41, the mutagenic call [2] is reported as “active; positive”, the mutagenic call (Test System: AMES SALMONELLA TYPHIMURIUM, Strain/Indicator: TA98, Metabolic Activation: RAT, LIVER, S-9, AROCLOR 1254, Method: STANDARD PLATE) is reported as “active; positive” and the mutagenic call [3] is reported as “active; positive”. For the same molecule, the mutagenic call (Test System: AMES SALMONELLA TYPHIMURIUM, Strain/Indicator: TA100, Metabolic Activation: RAT, LIVER, S-9, AROCLOR 1254, Method: STANDARD PLATE) was “active; positive”.
For Cc1ccc(N=Nc2c(O)ccc3ccccc23)c(C)c1, the mutagenic call (Test System: AMES SALMONELLA TYPHIMURIUM, Strain/Indicator: TA98, Metabolic Activation: HAMSTER, LIVER, S-9, AROCLOR 1254 (5,20%), Method: PREINCUBATION) was “active; positive”, the mutagenic call (Test System: AMES SALMONELLA TYPHIMURIUM, Strain/Indicator: TA98, Metabolic Activation: HAMSTER, LIVER, S-9, AROCLOR 1254, Method: STANDARD PLATE) was “active; positive” and the mutagenic call (Test System: AMES SALMONELLA TYPHIMURIUM, Strain/Indicator: TA98, Metabolic Activation: HAMSTER, LIVER, S-9, Method: PREINCUBATION (PRIVAL METHOD)) was “active; positive”. The mutagenic call [2] was “inactive; negative”, the mutagenic call (Test System: AMES SALMONELLA TYPHIMURIUM, Strain/Indicator: TA98, Metabolic Activation: RAT, BLADDER, S-9, PCB, Method: FLUCTUATION TEST) was “inactive; negative” and the mutagenic call (Test System: AMES SALMONELLA TYPHIMURIUM, Strain/Indicator: TA98, Metabolic Activation: RAT, LIVER, S-9, AROCLOR 1254, HAMSTER, LIVER, S-9, AROCLOR 1254, Method: STANDARD PLATE) was “active; positive”. The mutagenic call (Test System: AMES SALMONELLA TYPHIMURIUM, Strain/Indicator: TA98, Metabolic Activation: RAT, LIVER, S-9, Method: STANDARD PLATE) was “inactive; negative”, the mutagenic call (Test System: AMES SALMONELLA TYPHIMURIUM, Strain/Indicator: TA100, Metabolic Activation: HAMSTER, LIVER, S-9, Method: PREINCUBATION (PRIVAL METHOD)) was “active; positive” and the mutagenic call [3] was “inactive; negative”. The mutagenic call (Test System: AMES SALMONELLA TYPHIMURIUM, Strain/Indicator: TA100, Metabolic Activation: RAT, BLADDER, S-9, PCB, Method: FLUCTUATION TEST) was “inactive; negative”, the mutagenic call (Test System: AMES SALMONELLA TYPHIMURIUM, Strain/Indicator: TA100, Metabolic Activation: RAT, LIVER, S-9, Method: STANDARD PLATE) was “inactive; negative” and the mutagenic call (Test System: AMES SALMONELLA TYPHIMURIUM, Strain/Indicator: TA1538, Metabolic Activation: RAT, LIVER, S-9, AROCLOR 1254, HAMSTER, LIVER, S-9, AROCLOR 1254, Method: STANDARD PLATE) was “active; positive”. For the same molecule, the mutagenic call (Test System: Mouse lymphoma, Strain/Indicator: L5178Y (tk+/tk-), Metabolic Activation: None, Method: Suspension/plate) was “inactive; negative” and the mutagenic call (Test System: Mouse lymphoma, Strain/Indicator: L5178Y (tk+/tk-), Metabolic Activation: Rat, Liver, S-9, Aroclor 1254, Method: Suspension/plate) was “inactive; negative”.
